For this experiment, the target named is T1, QR1 (NQO1) (Homo sapiens, UniProt P15559).
T1 construct: purchased Sigma-Aldrich
Put plainly: Selectivity assay with QR1 in place of QR2, absorbance readout. Format: biochemical.

Where only a bound is given, the exact number is not on record here.

T1 sequence (P15559 whole entry): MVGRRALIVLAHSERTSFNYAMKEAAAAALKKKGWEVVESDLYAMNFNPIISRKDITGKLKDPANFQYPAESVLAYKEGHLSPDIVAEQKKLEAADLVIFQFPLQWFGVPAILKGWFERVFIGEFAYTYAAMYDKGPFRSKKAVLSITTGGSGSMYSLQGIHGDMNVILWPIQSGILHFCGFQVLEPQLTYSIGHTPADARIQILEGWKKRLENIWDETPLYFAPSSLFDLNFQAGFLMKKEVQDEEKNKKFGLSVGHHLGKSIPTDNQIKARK

As to `Cc1cccn2cc(-c3cccc(S(=O)(=O)N4CCC(C)CC4)c3)nc12` [YB-800], the 50% inhibitory concentration (IC50) (commonly the concentration that gives 50% inhibition) is over 9.99 µM.
